{"source": "paper PMC7930822", "about": "“Phase I Trial to Evaluate the Tolerance, Pharmacokinetics and Efficacy of the Broad-Spectrum ErbB Family Inhibitor Larotinib Mesylate in Patients With Advanced Solid Tumors” (Frontiers in Pharmacology, 2021)", "test": "phase I plasma pharmacokinetics (non-compartmental, LC-MS/MS)", "format": "in vivo, human", "conditions": "for AUC(0-t) / AUC(0-inf) / Cmax / half-life / Tmax / Vd/F: human, plasma, po", "method": "This was a phase I, single-center, open-label, dose-escalation study conducted at First Hospital of Jilin University, China (registration no.: ChiCTR-OPC-15007153 registered at http://www.chictr.org.cn). Larotinib mesylate hard capsules were produced and supplied by Sunshine Lake Pharma Co., Ltd (Guangdong Province, China) in different unit doses of […] under GMP condition. Seven dose levels were designed in the study: 50, 100, 150, 220, 300, 350, and 400 mg with administration stages labeled cycle 0, cycle 1, and subsequent treatment cycles. Patients received an oral single dose of larotinib mesylate after fasting during a 6-days cycle 0 to evaluate the tolerance and pharmacokinetic characteristics. After cycle 0, larotinib mesylate was continuously administered once daily for 28 days in cycle 1, and the tolerance and pharmacokinetic characteristics of multiple doses were evaluated (Figure 2). The patients who […] disease control (complete response [CR], partial response [PR], or stable disease [SD]) at the end of cycle one were permitted to participate in the subsequent 28-days treatment cycles until progressive disease (PD) or intolerance was observed.\nBlood samples (4 ml) for pharmacokinetic analyses were collected in tubes containing K2EDTA anticoagulant. Blood samples were centrifuged at 3,000 rpm for 10 min at 4°C and stored at –80°C until liquid chromatography-mass spectrophotometry (LC-MS/MS) analysis. Urine and fecal samples were collected only when patients were given the150-mg and 220-mg dose levels at sampling time intervals of 0–4, 4–8, 8–12, 12–24, 24–48, 48–72, 72–96 and 96–120 h in cycle 0.\nLinear mixed effects model was used to explore the dose exposure relationships. Dose proportionality was concluded if the 95% confidence interval (CI) of the linear regression slope was completely contained within the decision interval (1 + ln (0.8)/ln (8)∼1 + ln (1.25)/ln (8)). For urine and fecal data, the accumulative excretion rates of larotinib and M5 were calculated.\nBioanalysis was performed at Frontage Company (Shanghai, China). Validated high-performance LC-MS/MS method was used to quantify the concentrations of larotinib and M5 in plasma, urine and feces samples. Protein precipitation was employed for plasma, urine and feces processing. Plasma larotinib and M5 concentrations were determined using appropriate calibration curves obtained from standards in the range of 0.5–1,000 ng/ml. The interassay precision of the analysis method were 4.2–5.4% for larotinib and 3.9–4.3% for M5. The interassay accuracy of the analysis method were 100.4–103.4% for larotinib and 102.2–102.9% for M5, respectively.\nStatistical analyses were performed using SAS software, version 9.2 (SAS Institute Inc., United States). Descriptive statistics were used to summarize continuous variables as cases, means with standard deviations (SDs), medians, quartiles, maximums and minimums. For categorical variables, frequencies and percentages were used. A linear mixed effects model, relating log-transformed Cmax and AUC parameters to log-transformed dose, was used to investigate dose proportionality.", "note": "Structures can show the parent of a compound that is named as a salt. Where two headings read alike, the source gives them in different places.", "data": [{"compound": "COc1cc2ncnc(Nc3ccc(F)c(Cl)c3)c2cc1OCCCN1C[C@@H]2OCCO[C@@H]2C1", "note": "[larotinib mesylate]", "values": [{"measurement": "linearity of pharmacokinetics", "setting": "50–400 mg", "result": "No clear linear pharmacokinetic characteristic"}, {"measurement": "time to steady state", "setting": "continuous once daily administration", "result": 8, "unit": "days"}, {"measurement": "AUC(0-t)", "setting": "50 mg, multiple oral administration, 50 mg larotinib mesylate, steady state, read-out: AUC0-t,ss, mean (min–max)", "result": 3570, "unit": "ng·h/mL"}, {"measurement": "AUC(0-inf)", "setting": "50 mg, multiple oral administration, 50 mg larotinib mesylate, steady state, read-out: AUC0-∞,ss, mean (min–max)", "result": 4920, "unit": "ng·h/mL"}, {"measurement": "Cmax", "setting": "50 mg, multiple oral administration, 50 mg larotinib mesylate, steady state, read-out: Cmax,ss, mean (min–max)", "result": 67.5, "unit": "ng/mL"}, {"measurement": "half-life", "setting": "50 mg, multiple oral administration, 50 mg larotinib mesylate, steady state, read-out: T1/2,ss, mean (min–max) (converted)", "result": 61.2, "unit": "h"}, {"measurement": "Tmax", "setting": "50 mg, multiple oral administration, 50 mg larotinib mesylate, steady state, read-out: Tmax,ss, median (min–max)", "result": 5, "unit": "h"}, {"measurement": "Vd/F", "setting": "50 mg, multiple oral administration, 50 mg larotinib mesylate, steady state, read-out: Vz/F,ss, mean (min–max)", "result": 921, "unit": "L"}, {"measurement": "AUC(0-t)", "setting": "50 mg, single oral administration, 50 mg larotinib mesylate, read-out: AUC0-24, mean (min–max)", "result": 245, "unit": "ng·h/mL"}, {"measurement": "AUC(0-t)", "setting": "50 mg, single oral administration, 50 mg larotinib mesylate, read-out: AUC0-t, mean (min–max)", "result": 635, "unit": "ng·h/mL"}, {"measurement": "AUC(0-inf)", "setting": "50 mg, single oral administration, 50 mg larotinib mesylate, read-out: AUC0-∞, mean (min–max)", "result": 817, "unit": "ng·h/mL"}, {"measurement": "Cmax", "setting": "50 mg, single oral administration, 50 mg larotinib mesylate, read-out: Cmax, mean (min–max)", "result": 17.4, "unit": "ng/mL"}, {"measurement": "half-life", "setting": "50 mg, single oral administration, 50 mg larotinib mesylate, read-out: T1/2, mean (min–max) (converted)", "result": 56.7, "unit": "h"}, {"measurement": "Tmax", "setting": "50 mg, single oral administration, 50 mg larotinib mesylate, read-out: Tmax, median (min–max)", "result": 6, "unit": "h"}, {"measurement": "Vd/F", "setting": "50 mg, single oral administration, 50 mg larotinib mesylate, read-out: Vz/F, mean (min–max)", "result": 5070, "unit": "L"}, {"measurement": "AUC(0-t)", "setting": "100 mg, multiple oral administration, 100 mg larotinib mesylate, steady state, read-out: AUC0-t,ss, mean (min–max)", "result": 4480, "unit": "ng·h/mL"}, {"measurement": "AUC(0-inf)", "setting": "100 mg, multiple oral administration, 100 mg larotinib mesylate, steady state, read-out: AUC0-∞,ss, mean (min–max)", "result": 5200, "unit": "ng·h/mL"}, {"measurement": "Cmax", "setting": "100 mg, multiple oral administration, 100 mg larotinib mesylate, steady state, read-out: Cmax,ss, mean (min–max)", "result": 131, "unit": "ng/mL"}, {"measurement": "half-life", "setting": "100 mg, multiple oral administration, 100 mg larotinib mesylate, steady state, read-out: T1/2,ss, mean (min–max) (converted)", "result": 44.8, "unit": "h"}, {"measurement": "Tmax", "setting": "100 mg, multiple oral administration, 100 mg larotinib mesylate, steady state, read-out: Tmax,ss, median (min–max)", "result": 5, "unit": "h"}, {"measurement": "Vd/F", "setting": "100 mg, multiple oral administration, 100 mg larotinib mesylate, steady state, read-out: Vz/F,ss, mean (min–max)", "result": 1400, "unit": "L"}, {"measurement": "AUC(0-t)", "setting": "100 mg, single oral administration, 100 mg larotinib mesylate, read-out: AUC0-24, mean (min–max)", "result": 653, "unit": "ng·h/mL"}, {"measurement": "AUC(0-t)", "setting": "100 mg, single oral administration, 100 mg larotinib mesylate, read-out: AUC0-t, mean (min–max)", "result": 1240, "unit": "ng·h/mL"}, {"measurement": "AUC(0-inf)", "setting": "100 mg, single oral administration, 100 mg larotinib mesylate, read-out: AUC0-∞, mean (min–max)", "result": 1390, "unit": "ng·h/mL"}, {"measurement": "Cmax", "setting": "100 mg, single oral administration, 100 mg larotinib mesylate, read-out: Cmax, mean (min–max)", "result": 64.1, "unit": "ng/mL"}, {"measurement": "half-life", "setting": "100 mg, single oral administration, 100 mg larotinib mesylate, read-out: T1/2, mean (min–max) (converted)", "result": 43.9, "unit": "h"}, {"measurement": "Tmax", "setting": "100 mg, single oral administration, 100 mg larotinib mesylate, read-out: Tmax, median (min–max)", "result": 5, "unit": "h"}, {"measurement": "Vd/F", "setting": "100 mg, single oral administration, 100 mg larotinib mesylate, read-out: Vz/F, mean (min–max)", "result": 4580, "unit": "L"}, {"measurement": "AUC(0-t)", "setting": "150 mg, multiple oral administration, 150 mg larotinib mesylate, steady state, read-out: AUC0-t,ss, mean (min–max)", "result": 18200, "unit": "ng·h/mL"}, {"measurement": "AUC(0-inf)", "setting": "150 mg, multiple oral administration, 150 mg larotinib mesylate, steady state, read-out: AUC0-∞,ss, mean (min–max)", "result": 24600, "unit": "ng·h/mL"}, {"measurement": "Cmax", "setting": "150 mg, multiple oral administration, 150 mg larotinib mesylate, steady state, read-out: Cmax,ss, mean (min–max)", "result": 371, "unit": "ng/mL"}, {"measurement": "half-life", "setting": "150 mg, multiple oral administration, 150 mg larotinib mesylate, steady state, read-out: T1/2,ss, mean (min–max) (converted)", "result": 61.2, "unit": "h"}, {"measurement": "Tmax", "setting": "150 mg, multiple oral administration, 150 mg larotinib mesylate, steady state, read-out: Tmax,ss, median (min–max)", "result": 5, "unit": "h"}, {"measurement": "Vd/F", "setting": "150 mg, multiple oral administration, 150 mg larotinib mesylate, steady state, read-out: Vz/F,ss, mean (min–max)", "result": 564, "unit": "L"}, {"measurement": "AUC(0-t)", "setting": "150 mg, single oral administration, 150 mg larotinib mesylate, read-out: AUC0-24, mean (min–max)", "result": 1990, "unit": "ng·h/mL"}, {"measurement": "AUC(0-t)", "setting": "150 mg, single oral administration, 150 mg larotinib mesylate, read-out: AUC0-t, mean (min–max)", "result": 4780, "unit": "ng·h/mL"}, {"measurement": "AUC(0-inf)", "setting": "150 mg, single oral administration, 150 mg larotinib mesylate, read-out: AUC0-∞, mean (min–max)", "result": 5660, "unit": "ng·h/mL"}, {"measurement": "Cmax", "setting": "150 mg, single oral administration, 150 mg larotinib mesylate, read-out: Cmax, mean (min–max)", "result": 150, "unit": "ng/mL"}, {"measurement": "half-life", "setting": "150 mg, single oral administration, 150 mg larotinib mesylate, read-out: T1/2, mean (min–max) (converted)", "result": 39.3, "unit": "h"}, {"measurement": "Tmax", "setting": "150 mg, single oral administration, 150 mg larotinib mesylate, read-out: Tmax, median (min–max)", "result": 5, "unit": "h"}, {"measurement": "Vd/F", "setting": "150 mg, single oral administration, 150 mg larotinib mesylate, read-out: Vz/F, mean (min–max)", "result": 1650, "unit": "L"}, {"measurement": "AUC(0-t)", "setting": "220 mg, multiple oral administration, 220 mg larotinib mesylate, steady state, read-out: AUC0-t,ss, mean (min–max)", "result": 30200, "unit": "ng·h/mL"}, {"measurement": "AUC(0-inf)", "setting": "220 mg, multiple oral administration, 220 mg larotinib mesylate, steady state, read-out: AUC0-∞,ss, mean (min–max)", "result": 43600, "unit": "ng·h/mL"}, {"measurement": "Cmax", "setting": "220 mg, multiple oral administration, 220 mg larotinib mesylate, steady state, read-out: Cmax,ss, mean (min–max)", "result": 553, "unit": "ng/mL"}, {"measurement": "half-life", "setting": "220 mg, multiple oral administration, 220 mg larotinib mesylate, steady state, read-out: T1/2,ss, mean (min–max) (converted)", "result": 75.7, "unit": "h"}, {"measurement": "Tmax", "setting": "220 mg, multiple oral administration, 220 mg larotinib mesylate, steady state, read-out: Tmax,ss, median (min–max)", "result": 6, "unit": "h"}, {"measurement": "Vd/F", "setting": "220 mg, multiple oral administration, 220 mg larotinib mesylate, steady state, read-out: Vz/F,ss, mean (min–max)", "result": 553, "unit": "L"}, {"measurement": "AUC(0-t)", "setting": "220 mg, single oral administration, 220 mg larotinib mesylate, read-out: AUC0-24, mean (min–max)", "result": 3100, "unit": "ng·h/mL"}, {"measurement": "AUC(0-t)", "setting": "220 mg, single oral administration, 220 mg larotinib mesylate, read-out: AUC0-t, mean (min–max)", "result": 6360, "unit": "ng·h/mL"}, {"measurement": "AUC(0-inf)", "setting": "220 mg, single oral administration, 220 mg larotinib mesylate, read-out: AUC0-∞, mean (min–max)", "result": 8090, "unit": "ng·h/mL"}, {"measurement": "Cmax", "setting": "220 mg, single oral administration, 220 mg larotinib mesylate, read-out: Cmax, mean (min–max)", "result": 278, "unit": "ng/mL"}, {"measurement": "half-life", "setting": "220 mg, single oral administration, 220 mg larotinib mesylate, read-out: T1/2, mean (min–max) (converted)", "result": 68.2, "unit": "h"}, {"measurement": "Tmax", "setting": "220 mg, single oral administration, 220 mg larotinib mesylate, read-out: Tmax, median (min–max)", "result": 5, "unit": "h"}, {"measurement": "Vd/F", "setting": "220 mg, single oral administration, 220 mg larotinib mesylate, read-out: Vz/F, mean (min–max)", "result": 2720, "unit": "L"}, {"measurement": "AUC(0-t)", "setting": "300 mg, multiple oral administration, 300 mg larotinib mesylate, steady state, read-out: AUC0-t,ss, mean (min–max)", "result": 17900, "unit": "ng·h/mL"}, {"measurement": "AUC(0-inf)", "setting": "300 mg, multiple oral administration, 300 mg larotinib mesylate, steady state, read-out: AUC0-∞,ss, mean (min–max)", "result": 22600, "unit": "ng·h/mL"}, {"measurement": "Cmax", "setting": "300 mg, multiple oral administration, 300 mg larotinib mesylate, steady state, read-out: Cmax,ss, mean (min–max)", "result": 438, "unit": "ng/mL"}, {"measurement": "half-life", "setting": "300 mg, multiple oral administration, 300 mg larotinib mesylate, steady state, read-out: T1/2,ss, mean (min–max) (converted)", "result": 54.3, "unit": "h"}]}]}
